These results are taken from ChEMBL document CHEMBL1909592, “Targeting the prostaglandin F2α receptor for preventing preterm labor with azapeptide tocolytics” (J Med Chem, 2011).

The inhibition is the relative decrease from the control value, in per cent. Usually IC50 stands for the concentration needed to halve the response being measured.

For experiment [1], the target named is Prostaglandin F2-alpha receptor (Mus musculus) (UniProt P43117). The experiment in a line: Antagonist activity at FP receptor in postpartum mouse myometrial strip assessed as inhibition of PGF-2alpha-induced uterine contractions. Format: functional.
Sequence of Prostaglandin F2-alpha receptor (Mus musculus) (P43117 whole entry): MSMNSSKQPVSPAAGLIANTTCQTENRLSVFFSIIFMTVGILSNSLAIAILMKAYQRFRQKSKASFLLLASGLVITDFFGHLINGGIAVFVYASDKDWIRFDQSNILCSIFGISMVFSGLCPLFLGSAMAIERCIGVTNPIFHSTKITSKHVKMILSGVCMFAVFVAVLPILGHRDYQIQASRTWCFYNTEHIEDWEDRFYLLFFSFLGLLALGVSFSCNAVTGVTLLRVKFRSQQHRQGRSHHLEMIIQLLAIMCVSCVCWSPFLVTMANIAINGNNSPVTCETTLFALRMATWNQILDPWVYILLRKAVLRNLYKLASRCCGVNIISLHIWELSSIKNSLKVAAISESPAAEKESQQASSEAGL
The target of experiment [2] is Prostaglandin F2-alpha receptor (Homo sapiens) (UniProt P43088). The experiment in a line: Antagonist activity at human FP receptor expressed in HEK293 cells assessed as potentiation of PGF-2alpha-induced Galphaq-mediated PKC/ERK1/2 activation at 1 uM after 30 mins by Western blot analysis. It counts as functional, cell-based.
Sequence of Prostaglandin F2-alpha receptor (Homo sapiens) (P43088 whole entry): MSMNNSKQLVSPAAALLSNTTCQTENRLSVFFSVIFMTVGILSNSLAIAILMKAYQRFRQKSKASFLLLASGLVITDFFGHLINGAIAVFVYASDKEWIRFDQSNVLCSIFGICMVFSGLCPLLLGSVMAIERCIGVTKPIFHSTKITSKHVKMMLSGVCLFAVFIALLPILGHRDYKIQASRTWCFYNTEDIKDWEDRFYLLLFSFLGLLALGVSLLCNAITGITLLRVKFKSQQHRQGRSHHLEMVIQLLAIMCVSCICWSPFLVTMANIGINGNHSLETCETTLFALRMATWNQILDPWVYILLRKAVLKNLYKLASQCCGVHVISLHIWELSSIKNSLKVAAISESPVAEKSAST
For experiment [3] the target is unchanged. The experiment in a line: Antagonist activity at human FP receptor expressed in HEK293 cells assessed as ERK1/2 activation at 1 uM after 30 mins by Western blot analysis. Format: functional, cell-based.
Experiment [4] shares this target. The experiment in a line: Antagonist activity at human FP receptor expressed in HEK293 cells assessed as inhibition of PGF-2alpha-mediated cell ruffling at 1 uM after 30 mins by immunofluorescence assay (reference value: 65.7 +/- 1.6 %). It counts as functional, cell-based.
Experiment [5] shares this target. The experiment in a line: Antagonist activity at human FP receptor expressed in HEK293 cells assessed as inhibition of cell ruffling at 1 uM after 30 mins by immunofluorescence assay. It counts as functional, cell-based.
The subject of experiment [6] is Mus musculus. The experiment in a line: Inhibition of LPS-induced uterine contractions in pregnant CD-1 mouse assessed as time delay in preterm labor at 0.1 mg, ip administered as bolus dose immediately followed by 10 mg, sc. Format: functional.
Experiment [7] deals with Mus musculus. The experiment is described as follows: Inhibition of PGF-2alpha-induced uterine contractions in pregnant CD-1 mouse assessed as time delay in preterm labor at 0.1 mg, ip administered as bolus dose immediately followed by 10 mg, sc. Format: functional.
A short description of experiment [8]: Antagonist activity at FP receptor in pig retina assessed as inhibition of PGF-2alpha induced microvascular contraction. It counts as functional, tissue-based, Sus scrofa.
Experiment [9] is described as follows: Antagonist activity at FP receptor in pig retina assessed as inhibition of PGF-2alpha induced microvascular contraction at 100 uM. Format: functional. The following applies: Sus scrofa.
For experiment [10], the target named is Prostaglandin F2-alpha receptor (Mus musculus, UniProt P43117). The experiment in a line: Antagonist activity at FP receptor in mouse myometrial strip assessed as inhibition of PGF-2alpha-induced contractions. Format: functional.
Sequence of Prostaglandin F2-alpha receptor (Mus musculus, UniProt P43117) (P43117 whole entry): as the sequence (P43117 whole entry) above
Experiment [11] deals with Prostaglandin F2-alpha receptor (Bos taurus, UniProt P37289). The experiment is described as follows: Antagonist activity at FP receptor in bovine myometrial strip assessed as inhibition of PGF-2alpha-induced contractions. It counts as functional.
Sequence of Prostaglandin F2-alpha receptor (Bos taurus, UniProt P37289) (P37289 whole entry): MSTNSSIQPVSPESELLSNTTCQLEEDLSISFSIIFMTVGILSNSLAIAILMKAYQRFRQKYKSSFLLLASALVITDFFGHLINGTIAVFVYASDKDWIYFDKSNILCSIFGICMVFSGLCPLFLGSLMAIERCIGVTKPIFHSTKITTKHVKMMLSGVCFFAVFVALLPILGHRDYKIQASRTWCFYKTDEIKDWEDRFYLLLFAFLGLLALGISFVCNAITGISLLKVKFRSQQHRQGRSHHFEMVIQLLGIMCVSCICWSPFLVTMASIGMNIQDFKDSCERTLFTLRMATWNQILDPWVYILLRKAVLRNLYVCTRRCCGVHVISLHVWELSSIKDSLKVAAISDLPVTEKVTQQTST
Experiment [12] concerns the target Prostaglandin F2-alpha receptor (Ovis aries, UniProt Q28905). The experiment in a line: Antagonist activity at FP receptor in sheep myometrial strip assessed as inhibition of PGF-2alpha-induced contractions. It counts as functional.
The species named for experiment [13] is Mus musculus. The experiment is described as follows: Inhibition of PGF-2alpha-induced uterine contractions in pregnant mouse assessed as time delay in preterm labor at 0.8 mg/day. Format: functional.
The target in experiment [14] is Prostaglandin F2-alpha receptor (Mus musculus) (UniProt P43117). The following applies: 100 uM.
Description: Antagonist activity at FP receptor in mouse myometrial strip assessed as inhibition of PGF-2alpha-induced contractions at 100 uM
Experiment [15] concerns the target Prostaglandin F2-alpha receptor (Bos taurus) (UniProt P37289). The following applies: 100 uM.
Description: Antagonist activity at FP receptor in bovine myometrial strip assessed as inhibition of PGF-2alpha-induced contractions at 100 uM
Experiment [16] deals with Prostaglandin F2-alpha receptor (Ovis aries) (UniProt Q28905). The following applies: 100 uM.
Sequence of Prostaglandin F2-alpha receptor (Ovis aries) (Q28905 whole entry): as the sequence (P37289 whole entry) above, with S5N, I7V, E13A, E192Q, D340N counted along it
Description: Antagonist activity at FP receptor in sheep myometrial strip assessed as inhibition of PGF-2alpha-induced contractions at 100 uM

Active and inactive are the calls of the source. The rule behind the calls is not given here. Square brackets hold non-standard residues; d marks the D form. Peptide text beside a SMILES is read from it. * marks the point of attachment. dCit = NC(=O)NCCC[C@@H](N)C(=O)O; 3Pal = N[C@@H](Cc1cccnc1)C(=O)O; β3hF = N[C@H](CC(=O)O)Cc1ccccc1; PhAc = O=C(Cc1ccccc1)*; azaGly = NNC(=O)O

Sequence of Prostaglandin F2-alpha receptor (Ovis aries, UniProt Q28905) (Q28905 whole entry): as the sequence (P37289 whole entry) above, with S5N, I7V, E13A, E192Q, D340N counted along it
Sequence of Prostaglandin F2-alpha receptor (Bos taurus) (P37289 whole entry): as the sequence (P37289 whole entry) above

Turning to `O=C(O)C[C@H](Cc1ccccc1)NC(=O)[C@H](Cc1cccnc1)NC(=O)[C@@H]1CCC[C@@H]2CC[C@H](NC(=O)Cc3ccccc3)C(=O)N21`, in [1], the inhibition result is “inactive”.

In the case of `O=C(O)C[C@H](Cc1ccccc1)NC(=O)[C@H](Cc1cccnc1)NC(=O)[C@@H]1CCCN1C(=O)N(Cc1ccccc1)NC(=O)Cc1ccccc1`, the inhibition result in [1] is “Active”. In experiment [2], the outcome was Active. Besides, the outcome in experiment [3] was inactive. Moreover, the inhibition in [4] came out at 37.4%. Besides, in experiment [5], the inhibition entry is “inactive”.

For `O=C(O)C[C@H](Cc1ccccc1)NC(=O)[C@H](Cc1cccnc1)NC(=O)[C@@H]1CCC[C@@H]2C[C@H](NC(=O)Cc3ccccc3)C(=O)N21`, in [1], the inhibition entry was “inactive”.

As for `NC(=O)NCCC[C@@H](NC(=O)[C@H]1CC[C@H]2CC[C@@H](NC(=O)Cc3ccccc3)C(=O)N21)C(=O)N[C@@H](CC(=O)O)Cc1ccccc1`, in experiment [1], the inhibition result was “inactive”.

`CN(NC(=O)Cc1ccccc1)C(=O)N1CCC[C@H]1C(=O)N[C@@H](Cc1cccnc1)C(=O)N[C@H](CC(=O)O)Cc1ccccc1`: in experiment [1], the inhibition entry is “inactive”.

For the molecule `O=C(O)C[C@H](Cc1ccccc1)NC(=O)[C@H](Cc1cccnc1)NC(=O)[C@@H]1CCCN1C(=O)NNC(=O)Cc1ccccc1` (PhAc-[azaGly]P[3Pal][β3hF]-OH), the inhibition entry in experiment [1] was “Active”. Further, the result in experiment [2] was Active. In experiment [3], the result was inactive. Besides, in experiment [4], the inhibition is 37.5%. Also, the inhibition entry in experiment [5] was “inactive”.

As to `C#CCN(NC(=O)Cc1ccccc1)C(=O)N1CCC[C@H]1C(=O)N[C@@H](Cc1cccnc1)C(=O)N[C@H](CC(=O)O)Cc1ccccc1`, in experiment [1], the inhibition result is “Active”. The outcome in [2] was Active. Besides, the outcome in [3] was inactive. Further, in experiment [4], the inhibition stood at 56.7%. Besides, in experiment [5], the inhibition result is “inactive”.

Take `O=C(O)C[C@H](Cc1ccccc1)NC(=O)[C@H](Cc1cccnc1)NC(=O)[C@@H]1CC[C@@H]2CC[C@H](NC(=O)Cc3ccccc3)C(=O)N21`: the Time with Mus musculus [6] stood at 28 h; in the experiment on Mus musculus [7] it was 42 h. Further, in [1], the inhibition entry was “Active”. In addition, in experiment [2], the result was Active. For the same molecule, the inhibition in experiment [4] is 40.3%.

With `CC[C@@H](C)[C@@H](N)C(=O)N[C@H](CC(C)C)C(=O)NCC(=O)N[C@H](Cc1cnc[nH]1)C(=O)N[C@H](CCCNC(=N)N)C(=O)N[C@H](CC(=O)O)C(=O)N[C@H](Cc1ccc(O)cc1)C(=O)N[C@H](CCCCN)C(=O)O` (H-[dI][dL]G[dH][dR][dD][dY][dK]-OH), the IC50 in experiment [8] turned out to be 340 nM. In addition, the inhibition at 100 µM in experiment [9] is above 80%.

With `NC(=O)NCCC[C@H](NC(=O)[C@H]1CC[C@H]2CC[C@@H](NC(=O)Cc3ccccc3)C(=O)N21)C(=O)N[C@H](CC(=O)O)Cc1ccccc1`, the inhibition entry in experiment [1] was “inactive”.

Consider `CC[C@@H](C)[C@@H](N)C(=O)N[C@H](CC(C)C)C(=O)NCC(=O)N[C@H](Cc1cnc[nH]1)C(=O)N[C@H](CCCNC(N)=O)C(=O)N[C@H](CC(=O)O)C(=O)N[C@H](Cc1ccc(O)cc1)C(=O)N[C@H](CCCCN)C(=O)O` (H-[dI][dL]G[dH][dCit][dD][dY][dK]-OH), for which the 50% inhibitory concentration (IC50) in experiment [10], in experiment [11] and in experiment [12] was 13 nM each time. Also, in the experiment filed under Mus musculus [13], the Time worked out at 48 h. Further, the inhibition in experiment [14], in experiment [15] and in [16] was above 85% each time.

Take `C=CCN(NC(=O)Cc1ccccc1)C(=O)N1CCC[C@H]1C(=O)N[C@@H](Cc1cccnc1)C(=O)N[C@H](CC(=O)O)Cc1ccccc1`: in experiment [1], the inhibition result is “inactive”.
